Experimental data as given in publication PMC6201879, “N-substituted phenylbenzamides of the niclosamide chemotype attenuate obesity related changes in high fat diet fed mice” (PLoS ONE, 2018).
“And” between values parts separate entries of the source, which are not always exact repeats. Equal entries are not always repeated. “Also recorded” adds a separate entry of the source. Where two headings read alike, the source gives them in different places.

Legend:
[1] = tested on: Phosphorylated AMPK (Thr-172); assay: High-throughput phosphorylated AMPK (Thr-172) TR-FRET assay in HepG2 cells; format: cell-based, human; conditions: HepG2 TR-FRET dose response between 0.625 and 10 μM, 4 hours; also Western blot
Method: Phosphorylated AMPK (Thr-172) TR-FRET Assay Kit was purchased from CisBio (Bedford MA). HepG2 [HB-8065] cells were trypsinized, harvested and counted using Countess II FL automated cell counter (Thermo Fisher Scientific). Cells were then seeded in Poly-D-Lysine coated 96-well black optical plates at a concentration of 10,000 cells per well in 50μL growth medium. After 24-hours, the media was removed and replaced with 50μL of fresh growth media containing compounds. Five concentrations of each compound were prepared, ranging from 10 to 0.625 μM and applied to columns 2–11 of the cell plate. Control wells contained DMSO (column 1-minimum response control) or 500199 (column 12-maximum response control). The final DMSO concentration was 0.45%. Cells were cultured for 4 hours before cells were lysed in 50μL of lysis buffer for 30 minutes at room temperature according to assays protocol. Following lysis, 16μL of lysate was transferred to white 384 well small volume assay plate and 4μL of antibody dyes were added per assay protocol.
Following overnight incubation, quantitation was performed on a PHERAstar (BMG), using the HTRF protocol with an excitation wavelength of 337nm and emission wavelengths of 665nm and 620nm. The ratio between emission spectra (665/620) was assessed for each well individually and averaged for triplicate samples. Data are presented as mean ratio ± SE. The differences between the control (DMSO) and the compound treated wells were analyzed using two-way ANOVA and Dunnett’s post hoc test. A value of p<0.05 was considered to be significant.
Fig 5 Validation of AMPK pathway activation by phenylbenzamide derivatives in HepG2 cells. A) Cells were seeded at 10,000 cells per well 24 hours prior to treating cells with indicated concentration of compound or DMSO (CTL) for 4 hours. 16μL of cell lysate was incubated with HTRF phospho-AMPK detection reagents and fluorescence emission read at 665nm and 620nm using a PHERAstar platereader. The mean and standard deviation of the HTRF Ratio from three replicate wells is shown. The unstimulated (DMSO) and positive controls lysates are shown in green and red respectively.

PH5CH8 liver cells = assay: High-throughput hepatic de novo lipogenesis (DNL) assay, high content imaging of steatotic phenotype; format: cell-based, human
[2] = tested on: HEK293 cells stably transduced with the human OCT3 transporter; assay: Cellular oxygen consumption rate (OCR), MitoXpress Xtra; format: cell-based; conditions: HEK293 cells expressing human OCT3; for change in respiration / oxygen consumption rate (OCR): compared to DMSO control, 2 hours; for concentration dependence of OCR change: four concentrations
Method: Oxygen consumption rate experiments were performed by ZenBio, Inc (RTP, NC). HEK293 cells stably transduced with the human OCT3 transporter were plated in black-walled microclear plates (Greiner-BioOne) at 60,000 cells per well in growth medium. Cells were incubated overnight to allow attachment before growth medium was removed and replaced with 150μL of assay medium containing compound dilutions. Four concentrations of each compound were prepared and transferred to the empty wells. Control wells contained assay medium only or assay medium containing […] (FCCP) at 1μM. Ten μL of MitoXpress Xtra reagent was added to each test well and 100μL of pre-warmed mineral oil was overlaid in each well to create a seal. The plates were immediately read on a FLUOstar Omega (BMG) using dual read Time Resolved Fluorescence (TR-F) for 2 hours, with measurements taken every 2 minutes using 340nm and 650nm as excitation and emission wavelengths respectively. For lifetime analysis, two measurements per well were taken: 1) delay of 30μs, with a window of 30μs; and 2) delay of 70μs with a window of 30μs. Background TRF values were subtracted from all readings. A ratiometric analysis was performed to determine changes in the Lifetime fluorescence signal: Lifetime (μs)[T] = (D2-D1)/ln(W1/W2), where D is delay; W is fluorescence window value at each time point. Lifetime slopes were calculated using each Lifetime measurement over time. Data are presented as mean ± standard error (SE). The differences between the control (DMSO) and compound treated wells were analyzed using the Student’s t-test. A value of p≤0.05 was considered statistically significant. […]

[3] = tested on: Salmonella typhimurium TA98; assay: Ames assay, strain TA98; conditions: Positive Control chemical; concentration not given; without S9
[4] = tested on: Salmonella typhimurium TA1535; conditions: Positive Control chemical; concentration not given; without S9
[5] = tested on: Salmonella typhimurium TA100; conditions: Positive Control chemical; concentration not given; without S9
[6] = tested on: phospho-AMPK Thr-172 (p-AMPK); assay: Western blot of phospho-AMPK Thr-172 in HEK293T cells; format: cell-based, human; conditions: 1 and 10μM, negatives re-screened at 5 and 20 μM, 3 hours
Method: AMPK is a metabolic sensor that maintains cellular energy supply. As validation of these changes in lipid metabolism and cellular respiration we evaluated phospho-AMPK Thr-172 (p-AMPK) levels by Western blot in HEK293 cells treated with the phenylbenzamide derivatives. Compounds were screened at 1 and 10μM using the known uncouplers niclosamide and FCCP as positive controls (Fig 4A). […] We concluded that compounds that had little effect on oxygen consumption rates also had little effect on phosphorylation of AMPK.

[7] = Metabolic stability in mouse liver microsomes; format: in vitro ADME; conditions: 60 min
Method: (§1) Three experiments were performed with 1) 0.5mg/ml microsomes and 1mM NADPH, 2) 0.5mg/ml microsomes without NADPH and 3) 0.5mg/ml heat inactivated microsomes without NADPH in 100mM phosphate buffer, containing 5mM magnesium chloride. […] At the indicated time points, 50μl samples were removed and stopped by addition of 4 volumes of cold acetonitrile with internal standards, 100nM alprazolam, 200nM labetalol and 2μM ketoprofen. The samples were centrifuged at 3,220 g for 40 minutes and aliquots of 100μl were subsequently diluted with 100μl of ultra-pure water and analyzed by LC/MS/MS using a (Shimadzu corporation) LC system coupled to a Shimadzu Triple Quad 5500 mass spectrometer with an ESI interface. The LC system used a Waters XSelect HSS T3 C18, 2.5μm, 2.1 x 50 mm column eluted with one of two methods using mobile phases A (water, 0.1% formic acid) and B (acetonitrile, 0.1% formic acid). […] The Shimadzu Triple Quad 5500 MS was operated with the following parameters: Ion source: Turbo spray; Ionization mode: ESI; Scan type: MRM; Collision gas: 10 L/min; Curtain gas: 30 L/min; Nebulize gas: 50 L/min; Auxiliary gas: 50 L/min; Temperature: 500°C; Ionspray voltage: +5500 V (positive MRM). All experiments were performed in duplicate. Data were analyzed using Microsoft excel, and peak areas were determined from extracted ion chromatograms.

[8] = Metabolic stability in human liver microsomes; format: in vitro ADME
Method: as §1

[9] = tested on: Salmonella typhimurium TA1537; conditions: Positive Control chemical; concentration not given; without S9
[10] = Homo sapiens, PH5CH8 liver cells, 10-point dose response between 1μM and 1.9nM, read-out: IC50 (uM), inhibition of steatotic phenotype in DNL assay
[11] = Homo sapiens, S1 Table. SAR for N-Substituted Phenylbenzamides, read-out: IC50
[12] = S1 Table. SAR for N-Substituted Phenylbenzamides
[13] = S1 Table, SAR for N-Substituted Phenylbenzamides
[14] = S1 Table, SAR for N-Substituted Phenylbenzamides, read-out: IC50
[15] = 0.5mg/ml microsomes and 1mM NADPH
[16] = 0.5mg/ml microsomes without NADPH
[17] = heat inactivated microsomes without NADPH
[18] = Homo sapiens, S1 Table, SAR for N-Substituted Phenylbenzamides, read-out: IC50

O=C(Nc1ccc(Br)cc1Cl)c1cc(Cl)ccc1O [Compound 500832, N-(4-Bromo-2-chlorophenyl)-5-chloro-2-hydroxybenzamide]
phosphorylation of AMPK (Figs 5 and 4D) [1]: stimulated phosphorylation of AMPK
IC50 (PH5CH8 liver cells; [10]): 0.08 µM
IC50 (PH5CH8 liver cells; [11]): 0.0203 µM
Active/Inactive (PH5CH8 liver cells; [12]): Active
change in respiration / oxygen consumption rate (OCR) [2]: significant changes
concentration dependence of OCR change [2]: only significantly elevated at 1μM

O=[N+]([O-])c1ccc2c(c1)Cc1ccccc1-2 [Compound 2-NF, 2-nitrofluorene, reference compound]
Mean Revertant Colony Counts TA98 S9- [3]: 210.0 and 258.7

COC(=O)c1ccc(NC(=O)c2cc(C(F)(F)F)ccc2O)c(Cl)c1 [Compound 500844, Methyl 3-chloro-4-{[2-hydroxy-5-(trifluoromethyl)benzene]amido}benzoate]
Active/Inactive (PH5CH8 liver cells; [13]): Active
IC50 (PH5CH8 liver cells; [14]): 0.07 µM

[N-]=[N+]=[N-].[Na+] [SA, Sodium Azide, reference compound]
Mean Revertant Colony Counts TA-1535 S9- [4]: 103.3
Mean Revertant Colony Counts TA-100 S9- [5]: 133.7 and 120.0

COc1ccc(O)c(C(=O)Nc2ccc(C(=O)O)cc2C)c1 [Compound 600657, 4-(2-Hydroxy-5-methoxybenzamido)-3-methylbenzoic Acid]
Active/Inactive (PH5CH8 liver cells; [13]): Active
phosphorylation of AMPK (p-AMPK Thr-172) by Western blot [6]: no detectable changes in pAMPK levels
change in respiration / oxygen consumption rate (OCR) [2]: no change in respiration; also recorded: did not appear to stimulate phosphorylation of AMPK or increase oxygen consumption rate

N#Cc1ccc(NC(=O)c2cc(Cl)ccc2O)c(Cl)c1 [Compound 500833, 5-Chloro-N-(2-chloro-4-cyanophenyl)-2-hydroxybenzamide]
phosphorylation of AMPK (Figs 5 and 4D) [1]: stimulated phosphorylation of AMPK
IC50 (PH5CH8 liver cells; [10]): 0.04 µM
IC50 (PH5CH8 liver cells; [11]): 0.043 µM
Active/Inactive (PH5CH8 liver cells; [12]): Active
change in respiration / oxygen consumption rate (OCR) [2]: significant changes
concentration dependence of OCR change [2]: only significantly elevated at 1μM

COC(=O)c1ccc(NC(=O)c2cc(Cl)ccc2O)c(Cl)c1 [Compound 500189, Methyl 3-chloro-4-[(5-chloro-2-hydroxybenzene)amido]benzoate]
Active/Inactive (PH5CH8 liver cells; [13]): Inactive

CCC/C=C/C/C=C/C=C/C=N/NN=O [Triacsin C, reference compound]
reduced steatosis (steatotic phenotype in DNL assay) (PH5CH8 liver cells; PH5CH8, assay validation): 92 ± 19%

COC(=O)c1ccc(NC(=O)c2cccc(C(C)(C)C)c2O)c(Cl)c1 [Compound 600489, Methyl 4-(3-tert-butyl-2-hydroxybenzamido)-3-chlorobenzoate]
Remaining Percentage of 60 min (%), Mouse, Tested Sample [7, 15]: 2.7%
Remaining Percentage of 60 min (%), Mouse, Negative Control [7, 16]: 4.1%
Remaining Percentage of 60 min (%), Mouse, Heat-inactivated Control [7, 17]: 57.6%
IC50 (PH5CH8 liver cells; [10]): 0.01 µM
IC50 (PH5CH8 liver cells; [18]): 0.014 µM
Active/Inactive (PH5CH8 liver cells; [13]): Active
Remaining Percentage of 60 min (%), Human, Tested Sample [8, 15]: 3.1%
Remaining Percentage of 60 min (%), Human, Negative Control [8, 16]: 3.8%
microsomal stability ([8]; HLM and MLM, 60 min): completely degraded
Remaining Percentage of 60 min (%), Human, Heat-inactivated Control [8, 17]: 66.6%
phosphorylation of AMPK (p-AMPK Thr-172) by Western blot [6]: stimulated phosphorylation of AMPK only at the highest concentration
change in respiration / oxygen consumption rate (OCR) [2]: no change in respiration; also recorded: no effect on oxygen consumption rate

COC(=O)c1ccc(NC(=O)c2cc(C(F)(F)F)ccc2O)c(C)c1 [Compound 600655, Methyl 4-(2-hydroxy-5-[trifluoromethyl]benzamido)-3-methylbenzoate]
phosphorylation of AMPK (Figs 5 and 4D) [1]: stimulated phosphorylation of AMPK
IC50 (PH5CH8 liver cells; [10]): 0.03 µM
IC50 (PH5CH8 liver cells; [18]): 0.00025 µM
Active/Inactive (PH5CH8 liver cells; [13]): Active
change in respiration / oxygen consumption rate (OCR) [2]: significant changes
concentration dependence of OCR change [2]: dose dependent increase in OCR

COc1ccc2nc3cc(Cl)ccc3c(NCCCNCCCl)c2c1 [ICR-191, reference compound]
Mean Revertant Colony Counts TA-1537 S9- [9]: 72.3 and 73.0

N#CC(C#N)=NNc1ccc(OC(F)(F)F)cc1 [FCCP, carbonyl cyanide-p-trifluoromethoxyphenylhydrazone, reference compound]
change in respiration / oxygen consumption rate (OCR) [2]: increased OCR

COC(=O)c1ccc(NC(=O)c2cc(C(F)(F)F)ccc2O)c(Br)c1 [Compound 600653, Methyl 4-(2-hydroxy-5-[trifluoromethyl]benzamido)-3-bromobenzoate]
phosphorylation of AMPK (Figs 5 and 4D) [1]: stimulated phosphorylation of AMPK
IC50 (PH5CH8 liver cells; [10]): 0.27 µM
IC50 (PH5CH8 liver cells; [18]): 0.267 µM
Active/Inactive (PH5CH8 liver cells; [13]): Active
change in respiration / oxygen consumption rate (OCR) [2]: significant changes
concentration dependence of OCR change [2]: dose dependent increase in OCR

COC(=O)c1ccc(NC(=O)c2cc(C)ccc2O)c(Cl)c1 [Compound 500828, Methyl 3-chloro-4-[(2-hydroxy-5-methylbenzene)amido]benzoate]
Active/Inactive (PH5CH8 liver cells; [13]): Active
IC50 (PH5CH8 liver cells; [14]): 1.68 µM
